Measured values taken from patent US20230407243A1, “GENETIC PLATFORM TO INVESTIGATE THE FUNCTIONS OF BACTERIAL DRUG EFFLUX PUMPS” (priority 2022, published 2023).
“And” between values parts separate entries of the source, which are not always exact repeats. Identical values can stand only once.

Legend:
Format in all cases: cell-based, Escherichia coli
[1] = tested on: EKO-35 araC::acrEF Pore; assay: MIC susceptibility profiling, porinated efflux platform; settings: for MIC: Escherichia coli, Table 14A, porinated, technical duplicate, read-out: Minimum inhibitory concentration, EKO-35 araC::acrEF Pore; for Fold changes of MICs: EKO-35 araC::acrEF Pore compared to EKO-35-Pore
How it was run: (§1)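 E. coli strains carrying a genomically integrated constitutive fhuA ΔC/Δ4L pore were grown 18 h in LB at 37 °C, then diluted 1/2000 in MHB II from OD600 ~1.0. Compounds were tested in duplicate, 2-fold serial titration, for 18 h at 37 °C with shaking. MIC came from OD600 with the pre-incubation background subtracted.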

[2] = tested on: EKO-35 araC::emrAB Pore; assay: as above; settings: for MIC: Escherichia coli, EKO-35 araC::emrAB Pore, technical duplicate, read-out: Minimum inhibitory concentration; for Fold changes of MICs: EKO-35 araC::emrAB Pore compared to EKO-35-Pore
How it was run: as §1

[3] = tested on: EKO-35 araC::macAB Pore; assay: as above; settings: for MIC: Escherichia coli, EKO-35 araC::macAB Pore, technical duplicate, read-out: Minimum inhibitory concentration; for Fold changes of MICs: EKO-35 araC::macAB Pore compared to EKO-35-Pore
How it was run: as §1

[4] = tested on: EKO-35 araC::mdtBC Pore; assay: as above; settings: for MIC: Escherichia coli, EKO-35 araC::mdtBC Pore, technical duplicate, read-out: Minimum inhibitory concentration; for Fold changes of MICs: EKO-35 araC::mdtBC Pore compared to EKO-35-Pore
How it was run: as §1

[5] = tested on: EKO-35 araC::mdtEF Pore; assay: as above; settings: for MIC: Escherichia coli, Table 14A, porinated, technical duplicate, read-out: Minimum inhibitory concentration, EKO-35 araC::mdtEF Pore; for Fold changes of MICs: EKO-35 araC::mdtEF Pore compared to EKO-35-Pore
How it was run: as §1

[6] = tested on: EKO-35 araC::mexCD Pore; assay: as above; settings: for MIC: Escherichia coli, EKO-35 araC::mexCD Pore, technical duplicate, read-out: Minimum inhibitory concentration; for Fold changes of MICs: EKO-35 araC::mexCD Pore compared to EKO-35-Pore
How it was run: as §1

[7] = tested on: EKO-35-Pore; assay: Checkerboard synergy (FICI), porinated strain
Procedure: (§2) Synergy measurement using checkerboard analysis was performed in 96-well microtiter plates using the microdilution broth method, according to CLSI guidelines (Patel J. B., 2015). The cell inocula were prepared using the colony resuspension method. The minimum inhibitory concentrations (MICs) were defined as the lowest concentration that provided no growth, as determined by measurement of the OD600nm using a Synergy H1 microplate reader (BioTek). Susceptibility testing was performed in MHB II with a final volume of 100 μL. PAI3N (Bachem Americas) was solubilized in MHB II. […] Solvent controls were included in each plate.
(§3) The Fractional Inhibitory Concentration Index (FICI) was used to assess the synergy of PAI3N in combination with different antibiotics. The FICI represents the ΣFIC of each drug. The FICI for each drug was calculated using the following formula: FICI=FICA+FICB=(CA/MICA)+(CB/MICB). Where MICA and MICB are the MICs of drugs A (PAI3N/NMP) and B (antibiotic) alone, and CA and CB are the MICs of the drugs in combination. The effects of PAβN or NMP in combination with antibiotics were classified as: synergistic (FICI<0.5), additive (FICI>0.5-1.0), indifferent (FICI>1.0-2.0), and antagonistic (FICI>2.0). Fold increases in resistance provided by efflux pumps were calculated by dividing the MIC values of strains expressing efflux pumps by the MIC value of EKO-35.

[8] = tested on: wild-type K-12-Pore; assay: Checkerboard synergy (FICI), porinated strain
Procedure: as §2, §3

[9] = tested on: EKO-35 araC::acrB Pore; assay: MIC susceptibility profiling, porinated efflux platform; settings: for Fold changes of MICs: EKO-35 araC::acr-B Pore compared to EKO-35-Pore; for MIC: Escherichia coli, Table 14A, porinated, technical duplicate, read-out: Minimum inhibitory concentration, EKO-35 araC::acrB Pore
How it was run: as §1

[10] = EKO-35 Pore, antibiotic alone (PAβN checkerboard)
[11] = EKO-35 Pore, antibiotic in combination with PAβN
[12] = porinated efflux-deficient strains
[13] = strain EKO-35 Pore, NMP + antibiotic
[14] = strain EKO-35 Pore, antibiotic alone
[15] = strain EKO-35 Pore, antibiotic in combination with NMP
[16] = K-12 Pore, antibiotic alone (PAβN checkerboard)
[17] = K-12 Pore, antibiotic in combination with PAβN
[18] = strain K-12 Pore, NMP + antibiotic
[19] = strain K-12 Pore, antibiotic alone
[20] = strain K-12 Pore, antibiotic in combination with NMP

| Molecule | MIC [1] [µg/mL] | MIC [2] [µg/mL] | MIC [3] [µg/mL] | MIC [4] [µg/mL] | MIC [5] [µg/mL] | MIC [6] [µg/mL] | FICI ([7]; EKO-35 Pore, NMP + antibiotic) | FICI ([7]; EKO-35 Pore, PAβN + antibiotic) | MICb Alone [7, 10] [µg/mL] | MICb Combined [7, 11] [µg/mL] | Effect [7, 13] | FICI [7, 13] | MICb Alone [7, 14] [µg/mL] | MICb Combined [7, 15] [µg/mL] | Effect ([8]; K-12 Pore, PAβN + antibiotic) | MICb Alone [8, 16] [µg/mL] | MICb Combined [8, 17] [µg/mL] | Effect [8, 18] | MICb Alone [8, 19] [µg/mL] | MICb Combined [8, 20] [µg/mL] | further results |
| --- | --- | --- | --- | --- | --- | --- | --- | --- | --- | --- | --- | --- | --- | --- | --- | --- | --- | --- | --- | --- | --- |
| CC[C@H]1OC(=O)[C@H](C)[C@@H](O[C@H]2C[C@@](C)(OC)[C@@H](O)[C@H](C)O2)[C@H](C)[C@@H](O[C@@H]2O[C@H](C)C[C@H](N(C)C)[C@H]2O)[C@](C)(O)C[C@@H](C)C(=O)[C@H](C)[C@@H](O)[C@]1(C)O [erythromycin] | 1.56 | 0.195 | 0.781 | 0.195 | 1.56 | 1.56 | 0.770 | 0.610 | 0.13 | 0.063 | Additive (additive (FICI >0.5-1.0)) | 0.770 | 0.25 | 0.13 | Synergistic | 4 | 0.25 | — (indifferent (FICI >1.0)) | 16 | 8 | Effect ([7]; EKO-35 Pore, NMP + antibiotic): Additive; Effect ([7]; EKO-35 Pore, PAβN + antibiotic): Additive; interaction of NMP in combination with the labelled antibiotic (FICI) [7, 12]: no longer synergistic; interaction of PAβN in combination with the labelled antibiotic (FICI) [7, 12]: no longer synergistic; FICI ([8]; K-12 Pore, NMP + antibiotic): 1.000; FICI [8, 18]: 1.000 |
| CC[n+]1c(-c2ccccc2)c2cc(N)ccc2c2ccc(N)cc21 [ethidium bromide] | 1.56 | 0.098 | 0.098 | 0.098 | 0.781 | 0.781 | 0.508 |  |  |  | Additive (additive (FICI >0.5-1.0)) | 0.508 | 0.488 |  |  |  |  | Synergistic (Synergy (FICI ≤0.5)) | 250 | 31.3 | Fold changes of MICs [9]: 64 fold; MIC [9]: 6.25 µg/mL; Fold changes of MICs [1]: 16 fold; Fold changes of MICs [2]: 1 fold; Fold changes of MICs [3]: 1 fold; Fold changes of MICs [4]: 1 fold; Fold changes of MICs [5]: 8 fold; Fold changes of MICs [6]: 8 fold |
| CC(=O)O[C@H]1C[C@@]2(C)[C@@H](C[C@@H](O)[C@H]3[C@@]4(C)CC[C@@H](O)[C@@H](C)[C@@H]4CC[C@@]32C)/C1=C(\CCC=C(C)C)C(=O)O [fusidic acid] | 12.5 | 1.56 | 0.391 | 0.391 | 3.12 | 1.56 | 0.620 | 0.310 | 1 | 0.06 | Additive (additive (FICI >0.5-1.0)) | 0.620 | 0.5 | 0.06 | Synergistic | 512 | 32 | Synergistic (Synergy (FICI ≤0.5)) | 512 |  | Fold changes of MICs [9]: 256 fold; Fold changes of MICs [1]: 32 fold; Fold changes of MICs [2]: 4 fold; efflux pump-mediated resistance vs EKO-35-Pore ([2]; EmrAB, porinated strain): associated with resistance; Fold changes of MICs [3]: 1 fold; Fold changes of MICs [4]: 1 fold; Fold changes of MICs [5]: 8 fold; Fold changes of MICs [6]: 4 fold; Effect ([7]; EKO-35 Pore, NMP + antibiotic): Additive; Effect ([7]; EKO-35 Pore, PAβN + antibiotic): Synergistic; interaction of PAβN in combination with the labelled antibiotic (FICI) [7, 12]: synergy was maintained; Effect ([8]; K-12 Pore, NMP + antibiotic): Synergistic; FICI ([8]; K-12 Pore, NMP + antibiotic): 0.500; FICI ([8]; K-12 Pore, PAβN + antibiotic): 0.188; FICI [8, 18]: 0.500 |
| CC(=O)NC[C@H]1CN(c2ccc(N3CCOCC3)c(F)c2)C(=O)O1 [linezolid] | 7.81 | 7.81 | 3.91 | 3.91 | 7.81 | 7.81 | 2.000 | 1.000 | 8 | 4 | — (indifferent (FICI >1.0)) | 2.000 | 8 | 8 | Synergistic | 128 | 16 | Synergistic (Synergy (FICI ≤0.5)) | 128 | 32 | Fold changes of MICs [9]: 16 fold; MIC [9]: 62.5 µg/mL; Fold changes of MICs [1]: 2 fold; Fold changes of MICs [2]: 2 fold; Fold changes of MICs [3]: 1 fold; Fold changes of MICs [4]: 1 fold; Fold changes of MICs [5]: 2 fold; Fold changes of MICs [6]: 2 fold; Effect ([8]; K-12 Pore, NMP + antibiotic): Synergistic; FICI ([8]; K-12 Pore, PAβN + antibiotic): 0.250 |
| Cc1onc(-c2ccccc2)c1C(=O)N[C@@H]1C(=O)N2[C@@H]1SC(C)(C)[C@@H]2C(=O)O [oxacillin] | 5 | 0.313 | 0.313 | 0.313 | 1.25 | 2.5 | 0.750 | 1.020 | 0.25 | 0.13 | Additive (additive (FICI >0.5-1.0)) | 0.750 | 0.5 | 0.25 | Additive | 32 | 16 | Synergistic (Synergy (FICI ≤0.5)) | 64 | 16 | MIC [9]: 20 µg/mL; Effect ([7]; EKO-35 Pore, NMP + antibiotic): Additive; interaction of PAβN in combination with the labelled antibiotic (FICI) [7, 12]: no longer synergistic; Effect ([8]; K-12 Pore, NMP + antibiotic): Synergistic; FICI ([8]; K-12 Pore, NMP + antibiotic): 0.266; FICI ([8]; K-12 Pore, PAβN + antibiotic): 0.750; FICI [8, 18]: 0.266 |
| phenylalanine-arginine-β-naphthylamide [PAβN] |  |  |  |  |  |  |  |  |  |  |  |  |  |  |  |  |  |  |  |  | PABN MICa Alone ([7]; EKO-35 Pore, PAβN alone, one value per checkerboard, listed as PABN): 64 µg/mL and 32 µg/mL; PABN MICa Combined ([7]; EKO-35 Pore, with Ciprofloxacin): 2 µg/mL; PABN MICa Combined ([7]; EKO-35 Pore, with Erythromycin): 8 µg/mL; PABN MICa Combined ([7]; EKO-35 Pore, with Fusidic Acid): 16 µg/mL; PABN MICa Combined ([7]; EKO-35 Pore, with Linezolid): 32 µg/mL; PABN MICa Combined ([7]; EKO-35 Pore, with Novobiocin): 16 µg/mL; PABN MICa Combined ([7]; EKO-35 Pore, with Oxacillin): 32 µg/mL; PABN MICa Combined ([8]; K-12 Pore, with Ciprofloxacin): 256 µg/mL; PABN MICa Combined ([8]; K-12 Pore, with Erythromycin): 64 µg/mL; PABN MICa Combined ([8]; K-12 Pore, with Fusidic Acid): 32 µg/mL; PABN MICa Combined ([8]; K-12 Pore, with Linezolid): 32 µg/mL; PABN MICa Combined ([8]; K-12 Pore, with Novobiocin): 2 µg/mL; PABN MICa Combined ([8]; K-12 Pore, with Oxacillin): 64 µg/mL |
